According to patent US20080267996A1 (priority 2005, published 2008):

Assays:
[1] = tested on: HBs peptide pools (PreS2 + S ayw) and HbsAg protein; assay: Ex vivo IFN-gamma ELISPOT of patient PBMC; type: in vivo, human; details: Part 2 Groups A, B, C
Description: ELISPOT Assays were carried out by Cellular Technology Limited (CTL Laboratory LLC. 10515 Carnegie Ave., Suite 503 Cleveland Ohio 44106, USA) using the following assay conditions:
The following peptides were pooled and used as antigens:
The HBs series of peptides are arranged into 4 distinct pools of peptides, each containing up to 12 total peptides:
The entire HbsAg protein was also used as an antigen.
An ELISPOT response to a peptide pool (or HbsAg protein) was considered to have occurred when the mean +/− standard deviation for the peptide pool, or HbsAg protein, was greater than the mean +3 standard deviations of that patient's negative control.

[2] = tested on: HBsAg; assay: HBsAg / Anti-HBs serotyping (VITROS ECi); type: in vivo, hepatitis B virus; details: Week 14/18; Part 2 Group C (n 11)
Description: Serotyping was performed using a VITROS ECi Immunodiagnostic System.

Nc1ccn([C@@H]2CS[C@H](CO)O2)c(=O)n1 [lamivudine, Lamivudine]
baseline immunological responses (detected prior to treatment, unchanged or reduced) [1]: 3
boosted immunological responses (of baseline responses) [1]: 5/8
de novo immunological responses (of baseline non-responders) [1]: 0/3
HBsAg−, percent of patients [2]: 9%
